Test results: US6359003B1 (Fumapharm AG, priority 1998, dated 2002)

Experiments:
Ehrlich ascites tumour = conditions: mice; cited from earlier work
[1] = high dosages; parenterally, transdermally and especially perorally; cited from earlier work
[2] = test system: acute rejection of the graft (host-versus-graft reaction), rat kidney transplantation model; assay: Acute rejection model, rat kidney transplantation; format: in vivo; conditions: 33.3 mg/kg/day, day -28 to +28
Method: (§1) The effect of calcium methyl fumarate for alleviating the host-versus-graft reaction both in acute and chronic rejection models was investigated on a rat kidney transplantation model.
In order to investigate the influence of calcium methyl fumarate on the acute rejection of the graft, animal experiments were carried out (on rats). For this purpose, two groups of rats were treated with calcium methyl fumarate (CaMF; dosage: 33.3 mg/kg/day) or a placebo for a total period of 56 days [28 days before the kidney transplantation (−28) to 28 days after transplantation (+28)]. The number of animals with results fit for evaluation were n=9 in the placebo group and n=12 in the verum group. After that, the survival time of the animals in days after the transplantation was evaluated.

[3] = test system: chronic rejection (host-versus-graft reaction), rat kidney transplantation model; assay: Chronic rejection model, rat kidney transplantation; format: in vivo; conditions: for Creatinine: serum; for Creatinine / Proteinuria: week 10 after transplantation, cyclosporine 1.5 mg/kg/day s.c. day 0-9
Text: as §1
In order to investigate the effect of calcium methyl fumarate on chronic rejection, three groups of rats received transplants (kidneys) in animal experiments. Groups 1 and 2 received a placebo (group 1) or calcium methyl fumarate (CaMF) (group 2) as active ingredient from day 28 before until day 28 after transplantation. The third group was given CaMF from day 30 to 60 after the kidney transplantation. All animals received cyclosporine from day 0 to 9 after the transplantation. The dosages administered were 1.5 mg/kg/day of cyclosporine (subcutaneously) and 33.3 mg/kg/day of CaMF (perorally).
The effect of the treatment was checked by measuring the creatinine levels in the serum, initially on day 0, 1, 3, 5, and 10 and then once a week, and by observing the urine protein levels which were measured once a week. In groups 1 and 2, n=10 animals each provided results suitable for evaluation; in group 3, n=9.

[4] = Group 2: 33.3 mg/kg/day perorally day -28 to +28, n=10
[5] = Group 3: 33.3 mg/kg/day perorally day +30 to +60, n=9

O=C(O)/C=C/C(=O)O [Fumaric acid]
Growth of the Ehrlich ascites tumour (Ehrlich ascites tumour): inhibits the growth

O=C(O)/C(O)=C(\O)C(=O)O [dihydroxyl fumaric acid]
Side effects and toxicity [1]: unacceptably severe side effects and high toxicity

NC(=O)/C=C/C(N)=O [fumaramide]
Side effects and toxicity [1]: unacceptably severe side effects and high toxicity

N#C/C=C/C#N [fumaronitrile]
Side effects and toxicity [1]: unacceptably severe side effects and high toxicity

calcium methyl fumarate [CaMF]
Average survival time in days versus placebo (in words) [2]: significant increase | Number of surviving animals ([2]; >100 days after transplantation, n=12): 4 | Average survival time ([2]; after kidney transplantation, n=12): >42.3 ± 41.0 days | Number of surviving animals ([2]; day 6 after transplantation, n=12): 12 | Number of surviving animals ([2]; day 7 after transplantation, n=12): 12 | Number of surviving animals ([2]; day 8 after transplantation, n=12): 12 | Number of surviving animals ([2]; day 9 after transplantation, n=12): 11 | Number of surviving animals ([2]; day 10 after transplantation, n=12): 10 | Number of surviving animals ([2]; day 12 after transplantation, n=12): 9 | Number of surviving animals ([2]; day 13 after transplantation, n=12): 8 | Number of surviving animals ([2]; day 14 after transplantation, n=12): 7 | Number of surviving animals ([2]; day 16 after transplantation, n=12): 6 | Number of surviving animals ([2]; day 17 after transplantation, n=12): 5 | Number of surviving animals ([2]; day 26 after transplantation, n=12): 5 | Number of surviving animals ([2]; day 27 after transplantation, n=12): 4 | Damage to the kidneys (in words) ([3]; 10 weeks of follow-up, versus placebo): significant inhibition of damage to the kidneys | Creatinine [3, 4]: 55.7 ± 9.6 µmol/L | Creatinine [3, 5]: 88.0 ± 42.4 µmol/L | Proteinuria [3, 4]: 31.8 ± 18.4 mg/24 hrs | Proteinuria [3, 5]: 52.5 ± 31.6 mg/24 hrs
